Key:
Type in all cases: cell-based
[1] = system: TEAD reporter-containing human breast cancer cell line MCF7; test: TEAD reporter (luciferase) assay; details: TEAD reporter MCF7 cells, 24 hours treatment, 1% serum media
Outline: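 Cells plated at 30,000/well overnight, then treated 24 h in 1% serum medium with 0.1% DMSO. CCK-8 viability read at 450 nm, then Dual-Glo luciferase luminescence; IC50 from non-linear regression of dose-response curves.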

NCI-H226 cells = test: Proliferation assay (EdU incorporation), NCI-H226; details: Homo sapiens, 72 h, YAP-driven NCI-H226 (NF2 mutation), 3 days with inhibitor, 1% serum
Procedure: (§1) The anti-proliferative activity of TEAD inhibitors was evaluated in cells with different properties for YAP; “YAP-driven” cells (MSTO-211H, NCI-H226) in which YAP located in the nucleus and “YAP-independent” cells (OCM1, NCI-H28) where YAP located in the cytoplasm. […] TEAD inhibitors were evaluated with cell lines with these YAP profiling and mutational status.
(§2) The next day, replace it with cell starvation medium containing 1% serum. After one day of growth in the starvation medium, the cells were incubated for 3 days with TEAD inhibitors in a concentration range of 0.01-10 μM. After 3 days, EdU (Invitrogen) at a concentration of 10 µM was added to the starvation medium and incubated for an additional 24 hours. After removing the starvation medium remaining in each well, wash the wells with PBS. Cells were fixed with 4% paraformaldehyde (Electron microscopy sciences) at room temperature for 20 minutes. After removing the fix solution remaining in each well, wash the wells with PBS and the cells were permeabilized for 40 minutes by adding 0.5% triton X-100 (Sigma Aldrich). After removing the permeabilization solution remaining in each well, the EdU labeling was performed according to the instructions of the manufacturer's instructions (Click-iT™ Cell Reaction Buffer Kit, Invitrogen). After the Click reaction for EdU labeling, nuclei were stained with […] (Thermo Scientific) for total cell count analysis. After plate preparation for detection, Image acquisition was performed using the ImageXpress Micro XLS. The acquired images were analyzed using MetaXpress software (molecular devices). Through this experimental method, it was possible to confirm the inhibitory activity of TEAD inhibitors by detection EdU incorporated into proliferating cells.
(§3) IC50 for cell proliferation inhibition activity are shown in the Table 2 below and designated within the following ranges. [+++: ≤0.1 μM, ++: >0.1 μM to ≤1 μM, +: >1 μM to ≤10μ, −: >10 μM]

MSTO-211H cells = test: Proliferation assay (EdU incorporation), MSTO-211H; details: Homo sapiens, 72 h, YAP-driven MSTO-211H (LATS1 mutation), 3 days with inhibitor, 1% serum
Procedure: as §1, §2, §3

Row | Structure (SMILES) | IC50 [1] | IC50 (NCI-H226 cells) | IC50 (MSTO-211H cells)
1 | C=CC(=O)Nc1cnc2c(c1)c(/C=C/c1ccc(Cl)cc1)cn2CC [Compound 18, (E)-N-(3-(4-Chlorostyryl)-1-ethyl-1H-pyrrolo[2,3-b]pyridin-5-yl)acrylamide] | 1000 to 10000 nM | ≤ 100 nM | ≤ 100 nM
2 | C=CC(=O)Nc1cnc2c(c1)c(/C=C/C1CCC(F)(F)CC1)nn2C [Compound 30, (E)-N-(3-(2-(4,4-Difluorocyclohexyl)vinyl)-1-methyl-1H-pyrazolo[3,4-b]pyridin-5-yl)acrylamide] | ≤ 100 nM | ≤ 100 nM | 100 to 1000 nM
3 | C=CC(=O)Nc1cnc2c(c1)c(/C=C/c1ccc(Cl)cc1)nn2C [Compound 31, (E)-N-(3-(4-Chlorostyryl)-1-methyl-1H-pyrazolo[3,4-b]pyridin-5-yl)acrylamide] | 100 to 1000 nM | ≤ 100 nM | ≤ 100 nM
4 | C=CC(=O)Nc1cnc2c(c1)c(-c1ccc(C(C)C)cc1)cn2C [Example 93, N-(3-(4-Isopropylphenyl)-1-methyl-1H-pyrrolo[2,3-b]pyridin-5-yl)acrylamide] | 100 to 1000 nM | ≤ 100 nM | ≤ 100 nM
5 | C=CC(=O)Nc1ccc2c(c1)c(/C=C/C1CCC(F)(F)CC1)nn2CC [Compound 3, (E)-N-(3-(2-(4,4-Difluorocyclohexyl)vinyl)-1-ethyl-1H-indazol-5-yl)acrylamide] | ≤ 100 nM | 100 to 1000 nM | ≤ 100 nM
6 | C=CC(=O)Nc1cnc2c(c1)c(/C=C/c1ccc(Cl)cc1)cn2C [Compound 16, (E)-N-(3-(4-Chlorostyryl)-1-methyl-1H-pyrrolo[2,3-b]pyridin-5-yl)acrylamide] | 100 to 1000 nM | ≤ 100 nM | ≤ 100 nM
7 | C=CC(=O)Nc1ccc2c(c1)c(/C=C/C1CCC(F)(F)CC1)nn2C [Compound 1, (E)-N-(3-(2-(4,4-Difluorocyclohexyl)vinyl)-1-methyl-1H-indazol-5-yl)acrylamide] | ≤ 100 nM | ≤ 100 nM | 100 to 1000 nM
8 | C=CC(=O)Nc1ccc2c(c1)c(/C=C/c1ccc(Cl)cc1)cn2C(C)C [Compound 28, (E)-N-(3-(4-Chlorostyryl)-1-isopropyl-1H-indol-5-yl)acrylamide] | 100 to 1000 nM | ≤ 100 nM | 100 to 1000 nM
9 | C=CC(=O)Nc1cnc2c(c1)c(-c1ccc(F)c(Cl)c1)cn2C [Example 97, N-(3-(3-Chloro-4-fluorophenyl)-1-methyl-1H-pyrrolo[2,3-b]pyridin-5-yl)acrylamide] | 100 to 1000 nM | ≤ 100 nM | ≤ 100 nM
10 | C=CC(=O)Nc1cnc2c(c1)c(-c1ccc(Cl)c(F)c1)cn2C [Example 87, N-(3-(4-Chloro-3-fluorophenyl)-1-methyl-1H-pyrrolo[2,3-b]pyridin-5-yl)acrylamide] | 100 to 1000 nM | ≤ 100 nM | ≤ 100 nM
11 | C=CC(=O)Nc1ccc2c(c1)c(/C=C/c1ccc(Cl)cc1)nn2CC [Compound 4, (E)-N-(3-(4-Chlorostyryl)-1-ethyl-1H-indazol-5-yl)acrylamide] | > 10000 nM | ≤ 100 nM | ≤ 100 nM
12 | C=CC(=O)Nc1cnc2c(c1)c(-c1ccc(CC)cc1)cn2C [Example 89, N-(3-(4-Ethylphenyl)-1-methyl-1H-pyrrolo[2,3-b]pyridin-5-yl)acrylamide] | 100 to 1000 nM | ≤ 100 nM | ≤ 100 nM
13 | C=CC(=O)Nc1cnc2c(c1)c(-c1ccc(Cl)cc1)cn2C [Example 98, N-(3-(4-Chlorophenyl)-1-methyl-1H-pyrrolo[2,3-b]pyridin-5-yl)acrylamide] | 1000 to 10000 nM | ≤ 100 nM | ≤ 100 nM
14 | C=CC(=O)Nc1ccc2c(c1)c(/C=C/C1CCC(F)(F)CC1)cn2C [Compound 21, (E)-N-(3-(2-(4,4-Difluorocyclohexyl)vinyl)-1-methyl-1H-indol-5-yl)acrylamide] | ≤ 100 nM | 100 to 1000 nM | 100 to 1000 nM
15 | C=CC(=O)Nc1cnc2c(c1)c(/C=C/C1CCC(F)(F)CC1)cn2C(C)C [Compound 19, (E)-N-(3-(2-(4,4-Difluorocyclohexyl)vinyl)-1-isopropyl-1H-pyrrolo[2,3-b]pyridin-5-yl)acrylamide] | ≤ 100 nM | ≤ 100 nM | 100 to 1000 nM
16 | C=CC(=O)Nc1cnc2c(c1)c(-c1ccc(F)c(C(F)(F)F)c1)cn2C [Example 92, N-(3-(4-Fluoro-3-(trifluoromethyl)phenyl)-1-methyl-1H-pyrrolo[2,3-b]pyridin-5-yl)acrylamide] | ≤ 100 nM | ≤ 100 nM | ≤ 100 nM

— patent US20250282735A1, “BICYCLE COMPOUNDS AS TEAD INHIBITOR” (DONG-A ST CO., LTD., priority 2022, published 2025)
